Laboratory results: patent US20170202932A1, “METHODS FOR INHIBITING NEURON APOPTOSIS AND NECROSIS” (NEWSOUTH INNOVATIONS PTY LIMITED, priority 2012, published 2017)

Biological target: T1, recombinant mouse TRPC3b channels (Mus musculus, UniProt Q9QZC1, R524G)
T1 construct: Full length mouse TRPC3 transcripts were obtained by PCR; expressed in transfected cells; host or cells: HEK293 cells, stably transfected (pIRES-DsRed2 vector)
T1 sequence (Q9QZC1 75-910 R524G limits assumed): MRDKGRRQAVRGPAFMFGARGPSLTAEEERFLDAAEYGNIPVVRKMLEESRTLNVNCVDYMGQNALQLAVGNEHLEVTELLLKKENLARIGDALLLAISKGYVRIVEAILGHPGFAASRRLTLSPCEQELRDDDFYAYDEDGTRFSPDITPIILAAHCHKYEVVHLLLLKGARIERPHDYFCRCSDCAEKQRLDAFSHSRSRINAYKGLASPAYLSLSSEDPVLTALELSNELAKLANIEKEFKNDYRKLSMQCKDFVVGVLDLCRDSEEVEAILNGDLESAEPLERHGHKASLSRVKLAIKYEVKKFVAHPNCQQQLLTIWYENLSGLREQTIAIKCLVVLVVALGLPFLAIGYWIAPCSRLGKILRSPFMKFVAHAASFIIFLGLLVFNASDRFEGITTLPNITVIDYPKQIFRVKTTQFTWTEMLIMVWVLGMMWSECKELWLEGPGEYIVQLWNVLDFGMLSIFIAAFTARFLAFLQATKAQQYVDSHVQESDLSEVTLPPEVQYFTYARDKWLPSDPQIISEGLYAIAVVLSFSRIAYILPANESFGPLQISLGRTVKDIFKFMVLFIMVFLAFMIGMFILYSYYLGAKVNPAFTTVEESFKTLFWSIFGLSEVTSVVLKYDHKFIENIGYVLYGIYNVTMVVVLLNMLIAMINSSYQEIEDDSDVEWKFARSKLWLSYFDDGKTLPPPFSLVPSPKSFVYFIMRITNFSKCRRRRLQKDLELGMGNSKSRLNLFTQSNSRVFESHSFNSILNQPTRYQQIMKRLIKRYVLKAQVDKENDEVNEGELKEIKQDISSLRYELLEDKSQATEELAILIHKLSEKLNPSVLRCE
Assay: Whole-cell patch clamp of CCh-activated current, HEK293 cells expressing TRPC3b
Type: cell-based
Conditions: TRPC3b+CCh (100 μM)+genistein 200 μM pre-incubation; Vh=−50 mV; n=6; CCh alone −235.0±28.7 pA
Description: For whole cell patch clamp recordings, HEK293 cells stably expressing recombinant TRPC3 ion channels were grown to 85-95% confluence on a coverslip coated with poly-D-lysine and collagen (both from Sigma-Aldrich, U.S.A.). Recording pipettes were made from borosilicate glass (GC120TF-10, Harvard Apparatus, U.K.). The pipette resistance was at 3-6 MΩ (PC-10, Narishige, Japan). The internal solution had the composition: 130 mM CsCl, 2 mM MgCl2, 10 mM EGTA, 0.3 mM ATP, 0.03 mM GTP, pH at 7.3 adjusted with CsOH. Cells on the coverslip were placed in a microchamber on an inverted microscope (Leica DMIL, Germany) and superfused with HEPES-buffered physiological salt solution (HPSS) containing 120 mM NaCl, 5.4 mM KCl, 2 mM CaCl2, 1.13 mM MgCl2, 10 mM glucose, 20 mM HEPES (pH 7.4) at room temperature.
Whole cell patch clamp recordings were made following a gigaseal, using an Axopatch 200 patch clamp amplifier (Molecular Devices, U.S.A.) controlled by software (pClamp 10.2, Molecular Devices, U.S.A.). Cell capacitance was cancelled and series resistance was compensated by ˜90%. […] Carbachol (used to activate TRPC3 channels via the endogenously expressed M3 AChR) was purchased from Sigma-Aldrich (U.S.A.). DHPG (—(S)-2-amino-2-(3,5-dihydroxyphenyl)acetic acid), a group I mGluR agonist (Schoepp et al. 1994), was purchased from Tocris Bioscience (U.K.). […]

Compound: O=c1c(-c2ccc(O)cc2)coc2cc(O)cc(O)c12 [genistein, 4′, 5,7-trihydroxyisoflavone]
- mean peak CCh-activated whole-cell inward current: −24.8±9.7 pA
